Results from patent US20140058103A1, “Inhibitors of PI3K-Delta and Methods of Their Use and Manufacture” (Exelixis, Inc., priority 2010, published 2014).

Target: PI3K delta (Homo sapiens, UniProt O00329)
Assay: Luciferase-coupled chemiluminescence kinase assay (ATP consumption, KinaseGlo)
Format: biochemical
Outline: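 Compound, kinase and ATP (≤ KM) reacted 2 h at ambient temperature, then remaining ATP quantified with luciferase-luciferin (KinaseGlo) luminescence as percent consumed.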

Chain of PI3K delta (O00329 whole entry): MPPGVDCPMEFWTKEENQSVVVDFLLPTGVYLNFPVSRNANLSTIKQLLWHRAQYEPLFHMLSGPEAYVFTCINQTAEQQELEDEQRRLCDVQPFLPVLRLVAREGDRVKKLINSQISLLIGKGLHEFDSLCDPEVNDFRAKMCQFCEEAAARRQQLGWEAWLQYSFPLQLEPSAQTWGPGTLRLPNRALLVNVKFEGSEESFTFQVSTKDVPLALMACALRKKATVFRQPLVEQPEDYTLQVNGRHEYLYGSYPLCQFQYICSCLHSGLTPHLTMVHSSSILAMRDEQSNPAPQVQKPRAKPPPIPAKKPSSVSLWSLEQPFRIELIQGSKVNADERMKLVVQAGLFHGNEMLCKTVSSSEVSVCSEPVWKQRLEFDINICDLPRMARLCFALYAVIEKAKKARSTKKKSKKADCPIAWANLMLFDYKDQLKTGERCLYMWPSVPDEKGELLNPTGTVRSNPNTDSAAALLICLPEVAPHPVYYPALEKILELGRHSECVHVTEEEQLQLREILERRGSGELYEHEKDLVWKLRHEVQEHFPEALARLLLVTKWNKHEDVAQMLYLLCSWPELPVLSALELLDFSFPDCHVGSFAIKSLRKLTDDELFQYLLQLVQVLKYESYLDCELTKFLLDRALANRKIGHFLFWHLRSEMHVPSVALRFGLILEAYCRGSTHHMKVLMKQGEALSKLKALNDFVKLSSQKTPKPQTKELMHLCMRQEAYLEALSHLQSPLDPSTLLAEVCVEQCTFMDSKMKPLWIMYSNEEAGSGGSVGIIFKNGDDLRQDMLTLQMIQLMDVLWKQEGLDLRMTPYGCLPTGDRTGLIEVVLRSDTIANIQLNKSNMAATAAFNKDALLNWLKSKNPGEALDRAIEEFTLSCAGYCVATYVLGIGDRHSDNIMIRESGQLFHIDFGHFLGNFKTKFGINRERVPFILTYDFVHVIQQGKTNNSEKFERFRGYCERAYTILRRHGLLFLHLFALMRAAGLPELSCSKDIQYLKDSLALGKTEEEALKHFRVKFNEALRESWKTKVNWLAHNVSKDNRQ
Chain of PI3K delta (P27986 whole entry partner): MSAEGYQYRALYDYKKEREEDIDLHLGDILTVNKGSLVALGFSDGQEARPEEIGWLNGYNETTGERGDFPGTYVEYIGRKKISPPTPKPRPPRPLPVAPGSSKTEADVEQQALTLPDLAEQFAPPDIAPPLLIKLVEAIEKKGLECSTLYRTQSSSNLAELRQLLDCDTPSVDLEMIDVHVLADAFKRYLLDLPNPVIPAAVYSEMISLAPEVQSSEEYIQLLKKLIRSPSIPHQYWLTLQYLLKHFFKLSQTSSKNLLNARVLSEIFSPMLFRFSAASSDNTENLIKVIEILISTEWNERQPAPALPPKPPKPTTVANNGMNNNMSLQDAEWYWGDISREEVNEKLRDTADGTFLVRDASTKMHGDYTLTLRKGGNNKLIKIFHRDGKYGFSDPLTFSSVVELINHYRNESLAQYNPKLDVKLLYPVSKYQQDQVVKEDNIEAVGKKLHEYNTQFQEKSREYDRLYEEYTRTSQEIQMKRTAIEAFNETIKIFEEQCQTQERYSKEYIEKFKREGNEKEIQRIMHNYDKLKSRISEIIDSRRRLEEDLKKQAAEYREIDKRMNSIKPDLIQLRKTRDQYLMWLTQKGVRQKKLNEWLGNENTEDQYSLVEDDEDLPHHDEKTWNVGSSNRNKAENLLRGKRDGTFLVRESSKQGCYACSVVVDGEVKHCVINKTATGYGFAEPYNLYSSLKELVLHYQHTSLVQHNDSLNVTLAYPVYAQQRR

Compound | IC50 [nM]
Cn1cc(-c2nc3c(N4CCN(c5cccc(OCC(=O)N6CCCCCC6)c5)CC4)ncnc3n2C)cn1 [Compound 359, 6-(4-{3-[(2-azepan-1-yl-2-oxoethyl)oxy]phenyl}piperazin-1-yl)-9-methyl-8-(1-methyl-1H-pyrazol-4-yl)-9H-purine] | 250 to 500
CNC(=O)c1nc2c(N3CCC(n4c(=O)[nH]c5ccccc54)CC3)ncnc2n1C [Compound 91, N,9-dimethyl-6-[4-(2-oxo-2,3-dihydro-1H-benzimidazol-1-yl)piperidin-1-yl]-9H-purine-8-carboxamide] | 500 to 1500
Cn1c(C(=O)NCC2CC2)nc2c(N3CCC(N4c5ccccc5NS4(=O)=O)CC3)ncnc21 [Compound 133, N-(cyclopropylmethyl)-6-[4-(2,2-dioxido-2,1,3-benzothiadiazol-1(3H)-yl)piperidin-1-yl]-9-methyl-9H-purine-8-carboxamide] | 50 to 250
Cn1cc(-c2nc3c(N4CCN(S(=O)(=O)c5cc(Cl)ccc5Cl)CC4)ncnc3n2C)cn1 [Compound 379, 6-{4-[(2,5-dichlorophenyl)sulfonyl]piperazin-1-yl)-9-methyl-8-(1-methyl-1H-pyrazol-4-yl)-9H-purine] | 50 to 250
Cn1c(C(=O)NCC2CC2)nc2c(N3CCC(n4c(=O)[nH]c5cc(F)ccc54)CC3)ncnc21 [Compound 205, N-(cyclopropylmethyl)-6-[4-(5-fluoro-2-oxo-2,3-dihydro-1H-benzimidazol-1-yl)piperidin-1-yl]-9-methyl-9H-purine-8-carboxamide] | 50 to 250
Cn1c(-c2cncnc2)nc2c(N3CCC4(CC3)C(=O)Nc3ccccc34)ncnc21 [Compound 293, 1′-(9-Methyl-8-pyrimidin-5-yl-9H-purin-6-yl)spiro[indole-3,4′-piperidin]-2(1H)-one] | < 50
Cn1c(C(=O)NCC2CC2)nc2c(N3CCC(N4C(=O)NCc5ccccc54)CC3)ncnc21 [Compound 248, N-(cyclopropylmethyl)-9-methyl-6-[4-(2-oxo-3,4-dihydroquinazolin-1(2H)-yl)piperidin-1-yl]-9H-purine-8-carboxamide] | 250 to 500
CCn1c(-c2cnc(C)nc2)nc2c(N3CCC(n4c(=O)[nH]c5ccccc54)CC3)ncnc21 [Compound 342, 1-{1-[9-ethyl-8-(2-methylpyrimidin-5-yl)-9H-purin-6-yl]piperidin-4-yl}-1,3-dihydro-2H-benzimidazol-2-one] | < 50
Cn1c(C(=O)N2CCCC2)nc2c(N3CCC4(CC3)C(=O)Nc3ccccc34)ncnc21 [Compound 35, 1′-[9-methyl-8-(pyrrolidin-1-ylcarbonyl)-9H-purin-6-yl]spiro[indole-3,4′-piperidin]-2(1H)-one] | 500 to 1500
CCn1c(-c2cnc(N)nc2)nc2c(N3CCC(n4c(=O)[nH]c5ccccc54)CC3)ncnc21 [Compound 304, 1-{1-[8-(2-aminopyrimidin-5-yl)-9-ethyl-9H-purin-6-yl]piperidin-4-yl)-1,3-dihydro-2H-benzimidazol-2-one] | < 50
CCCc1nnc(-c2nc3c(N4CCC5(CC4)C(=O)Nc4ccccc45)ncnc3n2C)o1 [Compound 177, 1′-[9-methyl-8-(5-propyl-1,3,4-oxadiazol-2-yl)-9H-purin-6-yl]spiro[indole-3,4′-piperidin]-2(1H)-one] | < 50
Cn1c(C(=O)NCC2CC2)nc2c(N3CCC(c4c[nH]c5ccccc45)CC3)ncnc21 [Compound 100, N-(cyclopropylmethyl)-6-[4-(1H-indol-3-yl)piperidin-1-yl]-9-methyl-9H-purine-8-carboxamide] | 500 to 1500
Cn1c(C(=O)NCC2CC2)nc2c(N3CCC(n4c(=S)[nH]c5ccccc54)CC3)ncnc21 [Compound 169, N-(cyclopropylmethyl)-9-methyl-6-[4-(2-thioxo-2,3-dihydro-1H-benzimidazol-1-yl)piperidin-1-yl]-9H-purine-8-carboxamide] | 50 to 250
Cn1c(C(=O)NCCc2ccccn2)nc2c(N3CCC(n4c(=O)[nH]c5ccccc54)CC3)ncnc21 [Compound 51, 9-methyl-6-[4-(2-oxo-2,3-dihydro-1H-benzimidazol-1-yl)piperidin-1-yl]-N-(2-pyridin-2-ylethyl)-9H-purine-8-carboxamide] | 500 to 1500
CC(=O)c1nc2c(N3CCC(n4c(=O)[nH]c5ccccc54)CC3)ncnc2n1C [Compound 95, 1-[1-(8-Acetyl-9-methyl-9H-purin-6-yl)piperidin-4-yl]-1,3-dihydro-2H-benzimidazol-2-one] | 250 to 500
Cn1c(C(=O)NCC2CC2)nc2c(N3CCC(n4c(=O)[nH]c5cc(Cl)ccc54)CC3)ncnc21 [Compound 228, 6-[4-(5-chloro-2-oxo-2,3-dihydro-1H-benzimidazol-1-yl)piperidin-1-yl]-N-(cyclopropylmethyl)-9-methyl-9H-purine-8-carboxamide] | 500 to 1500
CCn1c(C(=O)N2CC(F)(F)C2)nc2c(N3CCC4(CC3)C(=O)Nc3ccccc34)ncnc21 [Compound 216, 1′-{8-[(3,3-difluoroazetidin-1-yl)carbonyl]-9-ethyl-9H-purin-6-yl}spiro[indole-3,4′-piperidin]-2(1H)-one] | < 50

Compound | IC50 [nM]
Cc1ncc(-c2nc3c(N4CCC(n5c(=O)[nH]c6ccccc65)CC4)ncnc3n2C)cn1 [Compound 340, 1-{1-[9-methyl-8-(2-methylpyrimidin-5-yl)-9H-purin-6-yl]piperidin-4-yl}-1,3-dihydro-2H-benzimidazol-2-one] | < 50
COc1ccc(-c2nc3c(N4CCC(n5c(=O)[nH]c6ccccc65)CC4)ncnc3n2C)cn1 [Compound 299, 1-(1-{9-methyl-8-[6-(methyloxy)pyridin-3-yl]-9H-purin-6-yl}piperidin-4-yl)-1,3-dihydro-2H-benzimidazol-2-one] | < 50
COc1ccccc1CNC(=O)c1nc2c(N3CCC(n4c(=O)[nH]c5ccccc54)CC3)ncnc2n1C [Compound 56, 9-methyl-N-{[2-(methyloxy)phenyl]methyl}-6-[4-(2-oxo-2,3-dihydro-1H-benzimidazol-1-yl)piperidin-1-yl]-9H-purine-8-carboxamide] | 250 to 500
CCn1c(C(=O)NC(C)C2CC2)nc2c(N3CCC(n4c(=O)[nH]c5ccccc54)CC3)ncnc21 (stereo not drawn) [Compound 187, N-(1-cyclopropylethyl)-9-ethyl-6-[4-(2-oxo-2,3-dihydro-1H-benzimidazol-1-yl)piperidin-1-yl]-9H-purine-8-carboxamide] | < 50
Cn1c(-c2ccc(C(F)(F)F)nc2)nc2c(N3CCC(n4c(=O)[nH]c5ncccc54)CC3)ncnc21 [Compound 315, 1-(1-{9-methyl-8-[6-(trifluoromethyl)pyridin-3-yl]-9H-purin-6-yl}piperidin-4-yl)-1,3-dihydro-2H-imidazo[4,5-b]pyridin-2-one] | < 50
CCn1c(-c2cnc(NC)nc2)nc2c(N3CCC(n4c(=O)[nH]c5ccccc54)CC3)ncnc21 [Compound 307, 1-(1-{9-ethyl-8-[2-(methylamino)pyrimidin-5-yl]-9H-purin-6-yl)piperidin-4-yl)-1,3-dihydro-2H-benzimidazol-2-one] | < 50
COc1ccc(CNC(=O)c2nc3c(N4CCC(n5c(=O)[nH]c6ccccc65)CC4)ncnc3n2C)cc1 [Compound 59, 9-methyl-N-{[4-(methyloxy)phenyl]methyl}-6-[4-(2-oxo-2,3-dihydro-1H-benzimidazol-1-yl)piperidin-1-yl]-9H-purine-8-carboxamide] | 250 to 500
Cn1cc(-c2nc3c(N4CCN(S(=O)(=O)c5ccccc5C#N)CC4)ncnc3n2C)cn1 [Compound 381, 2-({4-[9-methyl-8-(1-methyl-1H-pyrazol-4-yl)-9H-purin-6-yl]piperazin-1-yl}sulfonyl)benzonitrile] | 250 to 500
Cn1c(C(=O)NCCc2ccccn2)nc2c(N3CCC4(CC3)C(=O)Nc3ccccc34)ncnc21 [Compound 21, 9-methyl-6-(2-oxo-1,2-dihydro-1′H-spiro[indole-3,4′-piperidin]-1′-yl)-N-(2-pyridin-2-ylethyl)-9H-purine-8-carboxamide] | 500 to 1500
COc1ccc(CNC(=O)c2nc3c(N4CCC5(CC4)C(=O)Nc4ccccc45)ncnc3n2C)cc1 [Compound 29, 9-methyl-N-([4-(methyloxy)phenyl]methyl)-6-(2-oxo-1,2-dihydro-1′H-spiro[indole-3,4′-piperidin]-1′-yl)-9H-purine-8-carboxamide] | 500 to 1500
Cn1c(-c2ccc(N)nc2)nc2c(N3CCC(n4c(=O)[nH]c5ccccc54)CC3)ncnc21 [Compound 303, 1-{1-[8-(6-aminopyridin-3-yl)-9-methyl-9H-purin-6-yl]piperidin-4-yl}-1,3-dihydro-2H-benzimidazol-2-one] | < 50
Cc1ccc(S(=O)(=O)N2CCN(c3ncnc4c3nc(-c3cnn(C)c3)n4C)CC2)cc1 [Compound 370, 9-methyl-6-{4-[(4-methylphenyl)sulfonyl]-piperazin-1-yl)-8-(1-methyl-1H-pyrazol-4-yl)-9H-purine] | 500 to 1500
CCn1c(-c2cncnc2)nc2c(N3CCC(n4c(=O)[nH]c5ccccc54)CC3)ncnc21 [Compound 294, 1-[1-(9-ethyl-8-pyrimidin-5-yl-9H-purin-6-yl)piperidin-4-yl]-1,3-dihydro-2H-benzimidazol-2-one] | < 50
CCn1c(-c2ccc(C(F)(F)F)nc2)nc2c(N3CCC(n4c(=O)[nH]c5ncccc54)CC3)ncnc21 [Compound 326, 1-(1-{9-ethyl-8-[6-(trifluoromethyl)pyridin-3-yl]-9H-purin-6-yl}piperidin-4-yl)-1,3-dihydro-2H-imidazo[4,5-b]pyridin-2-one] | < 50
Cn1c(C(=O)NCC2CC2)nc2c(N3CCC(n4c(=O)[nH]c5ccc(Cl)cc54)CC3)ncnc21 [Compound 229, 6-[4-(6-chloro-2-oxo-2,3-dihydro-1H-benzimidazol-1-yl)piperidin-1-yl]-N-(cyclopropylmethyl)-9-methyl-9H-purine-8-carboxamide] | 500 to 1500
CCn1c(C(=O)NCC2CC2)nc2c(N3CCC(n4c(=O)[nH]c5ccccc54)CC3)ncnc21 [Compound 97, N-(cyclopropylmethyl)-9-ethyl-6-[4-(2-oxo-2,3-dihydro-1H-benzimidazol-1-yl)piperidin-1-yl]-9H-purine-8-carboxamide] | < 50
